Measurements taken from PubChem BioAssay AID328 (DTP/NCI, 2004).
“And” between values parts separate entries of the source, which are not always exact repeats. Identical values can stand only once. Inconclusive results and toxic doses are left out. How the source made its calls: active means survival T/C of 150% or more; inactive means T/C below 125% in these data.

System: BDF1 mice, P388 leukemia ip, median survival T/C
Assay: NCI In Vivo Anticancer Drug Screen. Data for tumor model P388 Leukemia (intraperitoneal) in B6D2F1 (BDF1) mice
Conditions: endpoint: median survival time, higher = longer survival
How it was run: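 Antitumour effect was judged in vivo: survival in drug-treated mice, normalised to that of vehicle-dosed controls, gives the reported T/C.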

[1] = dose: 200.0 mg/kg/injection, schedule: Q04DX003 (ip), vehicle: saline with Tween-80
[2] = dose: 100.0 mg/kg/injection, schedule: Q04DX003 (ip), vehicle: Klucel (hydroxypropylcellulose) (HPC)
[3] = dose: 200.0 mg/kg/injection, schedule: Q04DX003 (ip), vehicle: Klucel (hydroxypropylcellulose) (HPC)
[4] = dose: 400.0 mg/kg/injection, schedule: Q04DX003 (ip), vehicle: Klucel (hydroxypropylcellulose) (HPC)
[5] = dose: 100.0 mg/kg/injection, schedule: Q01DX009 (ip), vehicle: saline with Tween-80
[6] = dose: 200.0 mg/kg/injection, schedule: Q01DX009 (ip), vehicle: saline with Tween-80
[7] = dose: 400.0 mg/kg/injection, schedule: Q01DX009 (ip), vehicle: saline with Tween-80
[8] = dose: 50.0 mg/kg/injection, schedule: Q01DX009 (ip), vehicle: saline
[9] = dose: 100.0 mg/kg/injection, schedule: Q01DX009 (ip), vehicle: saline
[10] = dose: 200.0 mg/kg/injection, schedule: Q01DX009 (ip), vehicle: saline
[11] = dose: 50.0 mg/kg/injection, schedule: Q01DX009 (ip), vehicle: Klucel (hydroxypropylcellulose) (HPC)
[12] = dose: 50.0 mg/kg/injection, schedule: Q01DX009 (ip), vehicle: saline with Tween-80
[13] = dose: 20.0 mg/kg/injection, schedule: Q04DX003 (ip), vehicle: saline
[14] = dose: 40.0 mg/kg/injection, schedule: Q04DX003 (ip), vehicle: saline

Measured: T/C

O=C(C(=O)C(Br)Br)C(Br)Br
inactive: dose: 6.25 mg/kg/injection, schedule: Q01DX009 (ip), vehicle: DMSO 97 % of control

C=C(C)C(N)C(=O)O (stereo not drawn)
inactive: dose: 100.0 mg/kg/injection, schedule: Q04DX003 (ip), vehicle: saline with Tween-80 118 % of control | [1] 104 % of control | dose: 400.0 mg/kg/injection, schedule: Q04DX003 (ip), vehicle: saline with Tween-80 118 % of control

O=C(NCCBr)Nc1cccc2c1Cc1ccccc1-2
inactive: [2] 100 % of control | [3] 100 % of control | [4] 95 % of control

CCCCCCCCCCCCSSC(=S)OC(C)C
inactive: dose: 50.0 mg/kg/injection, schedule: Q01DX009 (ip), vehicle: other 106 % of control | dose: 100.0 mg/kg/injection, schedule: Q01DX009 (ip), vehicle: other 124 % of control

C#CCOCC1CNC(=S)O1 (stereo not drawn)
inactive: [5] 100 % of control | [6] 100 % of control | [7] 100 % of control

O=C(O)C1CC[N-]CC1.O=C(O)C1CC[N-]CC1.O=C(O)C1CC[N-]CC1.O=C(O)C1CC[N-]CC1.[Br][Rh][Br]
inactive: [8] 111 % of control | [9] 92 % of control and 93 % of control | [10] 93 % of control and 117 % of control | dose: 200.0 mg/kg/injection, schedule: Q04DX003 (ip), vehicle: saline 116 % of control | dose: 400.0 mg/kg/injection, schedule: Q04DX003 (ip), vehicle: saline 119 % of control

CCCCCCCCCCCCCCCCOc1ccccc1CNc1cccc(S(=O)(=O)F)c1
inactive: [5] 95 % of control | [6] 95 % of control | [7] 95 % of control

O=c1[nH]c2nccnc2[nH]1
inactive: dose: 12.5 mg/kg/injection, schedule: Q01DX009 (ip), vehicle: water 93 % of control and 99 % of control | dose: 25.0 mg/kg/injection, schedule: Q01DX009 (ip), vehicle: water 90 % of control and 104 % of control | dose: 50.0 mg/kg/injection, schedule: Q01DX009 (ip), vehicle: water 97 % of control | dose: 50.0 mg/kg/injection, schedule: Q04DX003 (ip), vehicle: water 107 % of control | dose: 100.0 mg/kg/injection, schedule: Q01DX009 (ip), vehicle: water 89 % of control and 101 % of control and 109 % of control | dose: 100.0 mg/kg/injection, schedule: Q04DX003 (ip), vehicle: water 105 % of control | dose: 200.0 mg/kg/injection, schedule: Q04DX003 (ip), vehicle: water 107 % of control | dose: 400.0 mg/kg/injection, schedule: Q04DX003 (ip), vehicle: water 116 % of control

c1ccc([P+](C[P+](c2ccccc2)(c2ccccc2)c2ccccc2)(c2ccccc2)c2ccccc2)cc1
inactive: dose: 0.39 mg/kg/injection, schedule: Q01DX009 (ip), vehicle: Klucel (hydroxypropylcellulose) (HPC) 109 % of control | dose: 0.78 mg/kg/injection, schedule: Q01DX009 (ip), vehicle: Klucel (hydroxypropylcellulose) (HPC) 109 % of control | dose: 1.56 mg/kg/injection, schedule: Q01DX009 (ip), vehicle: Klucel (hydroxypropylcellulose) (HPC) 118 % of control | dose: 1.72 mg/kg/injection, schedule: Q04DX003 (ip), vehicle: Klucel (hydroxypropylcellulose) (HPC) 109 % of control | dose: 2.3 mg/kg/injection, schedule: Q01DX009 (ip), vehicle: Klucel (hydroxypropylcellulose) (HPC) 115 % of control | dose: 3.45 mg/kg/injection, schedule: Q04DX003 (ip), vehicle: Klucel (hydroxypropylcellulose) (HPC) 122 % of control | dose: 6.9 mg/kg/injection, schedule: Q04DX003 (ip), vehicle: Klucel (hydroxypropylcellulose) (HPC) 90 % of control

CC1C[N+](C)(C)NC1=O (stereo not drawn)
inactive: dose: 50.0 mg/kg/injection, schedule: Q01DX001 (ip), vehicle: saline 100 % of control | dose: 200.0 mg/kg/injection, schedule: Q01DX001 (ip), vehicle: saline 100 % of control

CC1=CC(=O)c2c(O)cc(C)c(C(=O)C(Cl)Cl)c2C1=O
inactive: dose: 10.0 mg/kg/injection, schedule: Q01DX009 (ip), vehicle: Klucel (hydroxypropylcellulose) (HPC) 112 % of control | dose: 20.0 mg/kg/injection, schedule: Q01DX009 (ip), vehicle: Klucel (hydroxypropylcellulose) (HPC) 112 % of control

CCCCCCCCCC[N+](C)(C)CCC[N+](C)(C)CCCCCCCCCC
inactive: dose: 0.78 mg/kg/injection, schedule: Q01DX009 (ip), vehicle: saline 87 % of control | dose: 1.56 mg/kg/injection, schedule: Q01DX009 (ip), vehicle: saline 98 % of control | dose: 3.12 mg/kg/injection, schedule: Q01DX009 (ip), vehicle: saline 100 % of control | dose: 3.13 mg/kg/injection, schedule: Q01DX009 (ip), vehicle: saline 120 % of control | dose: 6.25 mg/kg/injection, schedule: Q01DX009 (ip), vehicle: saline 116 % of control and 123 % of control

Cc1ccc2oc(=O)c(C3=CC(=O)C(SC(=N)N)C=C3O)c(O)c2c1 (stereo not drawn)
inactive: dose: 50.0 mg/kg/injection, schedule: Q01DX005 (ip), vehicle: Klucel (hydroxypropylcellulose) (HPC) 95 % of control | dose: 100.0 mg/kg/injection, schedule: Q01DX005 (ip), vehicle: Klucel (hydroxypropylcellulose) (HPC) 97 % of control | dose: 200.0 mg/kg/injection, schedule: Q01DX005 (ip), vehicle: Klucel (hydroxypropylcellulose) (HPC) 91 % of control

CCCCNC(c1ccc(C=NC(CC)(CO)CO)cc1)C(Br)(Br)Br (stereo not drawn)
inactive: dose: 50.0 mg/kg/injection, schedule: Q04DX003 (ip), vehicle: other 100 % of control | dose: 100.0 mg/kg/injection, schedule: Q04DX003 (ip), vehicle: other 100 % of control | dose: 200.0 mg/kg/injection, schedule: Q04DX003 (ip), vehicle: other 104 % of control

O=C(NNC(=O)OCc1ccccc1)OCc1ccccc1
inactive: [11] 96 % of control | dose: 100.0 mg/kg/injection, schedule: Q01DX009 (ip), vehicle: Klucel (hydroxypropylcellulose) (HPC) 96 % of control | [2] 90 % of control | dose: 200.0 mg/kg/injection, schedule: Q01DX009 (ip), vehicle: Klucel (hydroxypropylcellulose) (HPC) 92 % of control | [3] 109 % of control

N#CC(C#N)=Cc1ccc(C=C(C#N)C#N)cc1
inactive: dose: 12.5 mg/kg/injection, schedule: Q01DX009 (ip), vehicle: Klucel (hydroxypropylcellulose) (HPC) 100 % of control | dose: 25.0 mg/kg/injection, schedule: Q01DX009 (ip), vehicle: Klucel (hydroxypropylcellulose) (HPC) 95 % of control | [11] 90 % of control | [2] 100 % of control | [3] 104 % of control | [4] 121 % of control

Cn1cncc1CC(Cl)CO (stereo not drawn)
inactive: dose: 25.0 mg/kg/injection, schedule: Q01DX009 (ip), vehicle: saline 100 % of control | [8] 99 % of control | [9] 103 % of control

Cn1c(N)c(N=Nc2ccccc2Cl)c(=O)n(C)c1=O
inactive: [12] 98 % of control | [5] 99 % of control | [6] 100 % of control

CC(C#N)N(C)C (stereo not drawn)
inactive: dose: 10.0 mg/kg/injection, schedule: Q01DX009 (ip), vehicle: saline 110 % of control | dose: 10.0 mg/kg/injection, schedule: Q04DX003 (ip), vehicle: saline 95 % of control | [13] 91 % of control | [14] 95 % of control

CC(=O)OS(C)(=O)=O
inactive: [13] 100 % of control | [14] 95 % of control | dose: 80.0 mg/kg/injection, schedule: Q04DX003 (ip), vehicle: saline 104 % of control | dose: 100.0 mg/kg/injection, schedule: Q04DX003 (ip), vehicle: saline 110 % of control

O=C(O)CCC(=O)CCl
inactive: dose: 12.0 mg/kg/injection, schedule: Q01DX009 (ip), vehicle: saline 120 % of control

c1ccc2cc3nc4cc5ccccc5cc4nc3cc2c1
inactive: [5] 99 % of control | [6] 100 % of control | [7] 100 % of control

CC(=O)OCc1ccc[n+](C2=C([O-])C(=O)C([n+]3cccc(COC(C)=O)c3)=C([O-])C2=O)c1
inactive: [12] 104 % of control | [5] 98 % of control | [6] 102 % of control

N#Cc1nc2c(n(O)c1=N)CCCCCCCCCC2
inactive: [12] 95 % of control | [5] 92 % of control | [6] 92 % of control

CC(O)C(N)C(=O)NCCc1nc(-c2nc(C(=O)NCCCBr)cs2)cs1 (stereo not drawn)
inactive: [8] 106 % of control | [9] 94 % of control | [10] 103 % of control

Cc1ccc(NC(=O)Oc2c(C)cc(Cl)cc2C)c([N+](=O)[O-])c1
inactive: dose: 25.0 mg/kg/injection, schedule: Q01DX009 (ip), vehicle: saline with Tween-80 90 % of control | [12] 101 % of control

CCOC(=O)NCCCCCCNC(=O)OCC
inactive: [12] 95 % of control | [5] 100 % of control | [1] 90 % of control
